Measured values: US9227982B2 (NOVARTIS AG, priority 2011, dated 2016)
Like-named read-outs stand apart in the source and are kept apart here.

How the values were obtained:
[1] = test system: Wnt ligand-induced signaling; experiment: Wnt-responsive Super-TOpFlash (STF) luciferase reporter gene assay in HEK293 cells; format: cell-based; conditions: 20% Wnt3A conditioned medium, read-out: HEK293STF IC50
Experimental: Cellular Reporter Gene Assay to Determine Compound Inhibition of Wnt Signaling Activity
Compound activity in inhibiting Wnt ligand-induced signaling was measured using a Wnt-responsive Super-TOpFlash (STF) luciferase reporter gene assay in HEK293 cells. On day 1 of the assay, cells were plated at a density of 8000 cells per well of 384-well plate in 25 μl medium containing 5% fetal bovine serum (FBS). On the second day, […] condition medium (CM) produced from mouse L cells was added to the cells to induce Wnt signaling, followed by addition of 5 μL of compounds each well in 10-point serial dilution. On the third day, the luciferase activity was measured by the Bright-Glo™ Luciferase Assay System following manufacture's protocol (Promega, E2620). The Inhibition was calculated as: (Maximum Wnt-induced signaling−Sample)/(Maximum Wnt-induced signaling−Background)*100. “Maximum Wnt-induced signaling” is the STF signal level induced by 20% Wnt3A CM without compound; and “Background” is the STF signal level without the addition of Wnt3A CM or compound.

[2] = molecular target: human tankyrase 1 PARP catalytic domain, TNKS1P (Homo sapiens (Human), UniProt O95271); experiment: TNKS1 autoparsylation enzymatic assay (LC/MS detection of nicotinamide); format: biochemical; conditions: 20 nM enzyme, 250 μM β-NAD+, 60 min, read-out: TNKS1 AP IC50
Sequence of human tankyrase 1 PARP catalytic domain, TNKS1P (O95271 1112-1317): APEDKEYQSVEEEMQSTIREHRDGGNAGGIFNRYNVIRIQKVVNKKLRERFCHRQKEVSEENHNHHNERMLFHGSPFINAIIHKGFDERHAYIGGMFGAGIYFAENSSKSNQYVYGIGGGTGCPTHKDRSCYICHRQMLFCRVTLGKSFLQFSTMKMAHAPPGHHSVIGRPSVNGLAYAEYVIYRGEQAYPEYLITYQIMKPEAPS
Source text: (§1) The human tankyrase 1 PARP catalytic domain, TNKS1P, was cloned into a pDONR221 vector using the Invitrogen Gateway Technology. This entry clone was then subcloned into the destination vector pDEST20 to obtain the N-terminal Glutathione S-transferase (GST)-tagged fusion protein. GST-TNKS1P was then expressed in Sf21 cells using the Invitrogen baculovirus expression system (Invitrogen-Bac-to-Bac® Baculovirus Expression System, Version D). The protein was purified by a GSTrap column (GE Healthcare). The N-terminal GST-tagged tankyrase 2 protein PARP domain, TNKS2P, was cloned, expressed, and purified in a similar manner. Human PARP1 (Cat. No. 4668-100-01) and activated DNA (Cat. No. 4671-096-06) were purchased from Trevigen, Inc. PARP2 (Cat. No. ALX-201-064-C020) was purchased from Alexis Biochemical.
The % Inhibition was calculated as: (Control−Sample)/(Control−Background)*100. “Control” is the average value of 8 wells without compound; and “Background” is the average of 8 wells mixed with 5× quenching solution measured prior to initiation of the reaction.

[3] = molecular target: TNKS2 (GST-tagged tankyrase 2 PARP domain, TNKS2P) (Homo sapiens (Human), UniProt Q9H2K2); experiment: TNKS2 autoparsylation enzymatic assay (LC/MS detection of nicotinamide); format: biochemical; conditions: 20 nM enzyme, 250 μM β-NAD+, 60 min, read-out: TNKS2 AP IC50
Sequence of TNKS2 (GST-tagged tankyrase 2 PARP domain, TNKS2P) (Q9H2K2 959-1164): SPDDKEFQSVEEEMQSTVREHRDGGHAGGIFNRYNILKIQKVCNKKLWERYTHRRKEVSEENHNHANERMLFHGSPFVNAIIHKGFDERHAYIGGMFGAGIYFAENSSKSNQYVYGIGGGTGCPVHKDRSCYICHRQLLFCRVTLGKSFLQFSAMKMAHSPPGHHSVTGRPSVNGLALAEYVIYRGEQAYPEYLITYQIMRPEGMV
Source text: as §1, with “manner.” for “manner. Human PARP1 (Cat. No. 4668-100-01) and activated DNA (Cat. No. 4671-096-06) were purchased from Trevigen, Inc. PARP2 (Cat. No. ALX-201-064-C020) was purchased from Alexis Biochemical.”
The % Inhibition was calculated as: (Control−Sample)/(Control−Background)*100.

Row | Compound | IC50 ([1]; Homo sapiens) [µM] | IC50 [2] [µM] | IC50 [3] [µM] | IC50 [1] [µM]
1 | O=C(CCc1c[nH]c2ccccc12)N(Cc1nc2c(c(=O)[nH]1)COCC2)Cc1cccs1 [Example 3, 3-(1H-Indol-3-yl)-N-(4-oxo-3,5,7,8-tetrahydro-4H-pyrano[4,3-d]pyrimidin-2-ylmethyl)-N-thiophen-2-ylmethyl-propionamide] | 9.31 ± 3.9 |  |  | 
2 | O=C(CCc1cccc(F)c1)N(Cc1nc2c(c(=O)[nH]1)COCC2)Cc1cccs1 [Example 5, 3-(3-Fluorophenyl)-N-((4-oxo-4,5,7,8-tetrahydro-3H-pyrano[4,3-d]pyrimidin-2-yl)methyl)-N-(thiophen-2-ylmethyl)propanamide] |  | 1.58 ± 0.014 |  | 
3 | O=C(CCc1ccccc1O)N(Cc1nc2c(c(=O)[nH]1)COCC2)Cc1cccs1 [Example 6, 3-(2-Hydroxy-phenyl)-N-(4-oxo 3,5,7,8-tetrahydro-4H-pyrano[4,3-d]pyrimidin-2-ylmethyl)-N-thiophen-2-ylmethyl-propionamide] |  | 5.19 ± 0.227 |  | 
4 | O=C(CCc1ccc(O)cc1)N(Cc1nc2c(c(=O)[nH]1)COCC2)Cc1cccs1 [Example 8, 3-(4-Hydroxy-phenyl)-N-(4-oxo-3,5,7,8-tetrahydro-4H-pyrano[4,3-d]pyrimidin-2-ylmethyl)-N-thiophen-2-ylmethyl-propionamide] |  | 1.42 ± 0.04 |  | 
5 | O=c1[nH]c(CN(Cc2cccs2)S(=O)(=O)Cc2ccccc2)nc2c1COCC2 [Example 9, N-((4-Oxo-4,5,7,8-tetrahydro-3H-pyrano[4,3-d]pyrimidin-2-yl)methyl)-1-phenyl-N-(thiophen-2-ylmethyl)methanesulfonamide] | 0.9 ± 0.23 |  |  | 
6 | O=c1[nH]c(CN(Cc2cccs2)S(=O)(=O)CCc2ccccc2)nc2c1COCC2 [Example 10, 2-Phenyl-ethanesulfonic acid (4-oxo-3,5,7,8-tetrahydro-4H-pyrano[4,3-d]pyrimidin-2-ylmethyl)-thiophen-2-ylmethyl-amide] | 2.43 ± 0.94 |  |  | 
7 | O=C(CCc1ccncc1)N(Cc1nc2c(c(=O)[nH]1)COCC2)Cc1cccs1 [Example 11, N-((4-Oxo-4,5,7,8-tetrahydro-3H-pyrano[4,3-d]pyrimidin-2-yl)methyl)-3-(pyridin-4-yl)-N-(thiophen-2-ylmethyl)propanamide] |  | 4.17 ± 0.26 |  | 
8 | O=C(CCc1ccccc1)N(Cc1nc2c(c(=O)[nH]1)COCC2)CC1CCCC1 [Example 13, N-Cyclopentylmethyl-N-(4-oxo-3,5,7,8-tetrahydro-4H-pyrano[4,3-d]pyrimidin-2-ylmethyl)-3-phenyl-propionamide] | 4.09 ± 1.29 | 4.78 ± 0.36 | 0.995 ± 0.094 | 
9 | O=C(CCc1ccccc1)N(Cc1nc2c(c(=O)[nH]1)COCC2)Cc1ccccc1F [Example 14, N-(2-Fluorobenzyl)-N-((4-oxo-4,5,7,8-tetrahydro-3H-pyrano[4,3-d]pyrimidin-2-yl)methyl)-3-phenylpropanamide] | 4.09 ± 0.1 | 5.61 ± 0.24 | 1.05 ± 0.05 | 
10 | CCN(Cc1nc2c(c(=O)[nH]1)COCC2)C(=O)CCc1ccccc1 [Example 15, N-Ethyl-N-((4-oxo-4,5,7,8-tetrahydro-3H-pyrano[4,3-d]pyrimidin-2-yl)methyl)-3-phenylpropanamide] |  | > 19 |  | 
11 | CC(C)N(Cc1nc2c(c(=O)[nH]1)COCC2)C(=O)CCc1ccccc1 [Example 16, N-Isopropyl-N-((4-oxo-4,5,7,8-tetrahydro-3H-pyrano[4,3-d]pyrimidin-2-yl)methyl)-3-phenylpropanamide] | 34.9 | > 19 | 5.39 ± 1.63 | 
12 | CC(C)(C)C(=O)CN(Cc1nc2c(c(=O)[nH]1)COCC2)C(=O)CCc1ccccc1 [Example 17, N-(3,3-Dimethyl-2-oxobutyl)-N-((4-oxo-4,5,7,8-tetrahydro-3H-pyrano[4,3-d]pyrimidin-2-yl)methyl)-3-phenylpropanamide] | 14.3 ± 1 | 17.1 ± 2 | 2.99 ± 0.036 | 
13 | O=C(CCc1ccccc1)N(Cc1nc2c(c(=O)[nH]1)COCC2)Cc1nccs1 [Example 19, N-((4-Oxo-4,5,7,8-tetrahydro-3H-pyrano[4,3-d]pyrimidin-2-yl)methyl)-3-phenyl-N-(thiazol-2-ylmethyl)propanamide] | 8.56 ± 0.42 | 11.4 ± 0.4 | 2.03 ± 0.04 | 
14 | O=C(CCc1ccccc1)N(Cc1nc2c(c(=O)[nH]1)COCC2)Cc1ncco1 [Example 20, N-(Oxazol-2-ylmethyl)-N-((4-oxo-4,5,7,8-tetrahydro-3H-pyrano[4,3-d]pyrimidin-2-yl)methyl)-3-phenylpropanamide] | 14.3 ± 4 | 4.6 ± 0.2 | 1.7 ± 0.03 | 
15 | O=C(CCc1ccccc1)N(Cc1nc2c(c(=O)[nH]1)COCC2)Cc1ccc(Cl)s1 [Example 21, N-((5-Chlorothiophen-2-yl)methyl)-N-((4-oxo-4,5,7,8-tetrahydro-3H-pyrano[4,3-d]pyrimidin-2-yl)methyl)-3-phenylpropanamide] | 1.97 ± 0.56 | 1.61 ± 0.11 | 0.318 ± 0.009 | 
16 | O=C(CCc1ccccc1)N(Cc1nc2c(c(=O)[nH]1)COCC2)Cc1cncs1 [Example 22, N-((4-Oxo-4,5,7,8-tetrahydro-3H-pyrano[4,3-d]pyrimidin-2-yl)methyl)-3-phenyl-N-(thiazol-5-ylmethyl)propanamide] | 18.2 ± 4.5 | 17.5 ± 1 | 3.48 ± 0.71 | 
17 | O=C(CCc1ccccc1)N(CCO)Cc1nc2c(c(=O)[nH]1)COCC2 [Example 23, N-(2-Hydroxy-ethyl)-N-(4-oxo-3,5,7,8-tetrahydro-4H-pyrano[4,3-d]pyrimidin-2-ylmethyl)-3-phenyl-propionamide] | > 50 | 16.93 ± 0.02 | 2.68 ± 0.077 | 
18 | C[C@@H](c1ccccc1)N(Cc1nc2c(c(=O)[nH]1)COCC2)S(=O)(=O)Cc1ccccc1 [Example 24, (S)—N-((4-Oxo-4,5,7,8-tetrahydro-3H-pyrano[4,3-c]pyrimidin-2-yl)methyl)-1-phenyl-N-(1-phenylethyl)methanesulfonamide] | 15.7 ± 0.8 | 18.1 ± 1.9 | 3.12 ± 0.06 | 
19 | C[C@H](c1ccccc1)N(Cc1nc2c(c(=O)[nH]1)COCC2)S(=O)(=O)Cc1ccccc1 [Example 25, (R)—N-((4-Oxo-4,5,7,8-tetrahydro-3H-pyrano[4,3-d]pyrimidin-2-yl)methyl)-1-phenyl-N-(1-phenylethyl)methanesulfonamide] | 23.2 ± 7.9 | 9.08 ± 0.76 | 1.85 ± 0.06 | 
20 | O=C(CCc1ccccc1F)N(Cc1ccc[nH]1)Cc1nc2c(c(=O)[nH]1)COCC2 [Example 26, N-((1H-Pyrrol-2-yl)methyl)-3-(2-fluorophenyl)-N-((4-oxo-4,5,7,8-tetrahydro-3H-pyrano[4,3-d]pyrimidin-2-yl)methyl)propanamide] | 5 ± 0.72 | 1.17 ± 0.12 | 0.235 ± 0.024 | 
21 | N-((4-Oxo-4,5,7,8-tetrahydro-3H-pyrano[4,3-d]pyrimidin-2-yl)methyl)-3-(pyridin-4-yl)-N-(thiophen-2-ylmethyl)propanamide [Example 12] |  | 14.6 ± 0.4 |  | 41 ± 1.6
